This passage reports melting point results from patent US7220758B2, “Ether substituted imidazopyridines” (3M Innovative Properties Company, priority 2002, dated 2007).

Turning to `CCCc1nc2c(N)nc(C)c(C)c2n1CCCCCCS(C)(=O)=O` [Example 91, 1-[6-(Methanesulfonyl)hexyl]-6,7-dimethyl-2-propyl-1H-imidazo[4,5-c]pyridin-4-amine], the melting point is 157 to 158 °C. To `CCCc1nc2c(N)nc(C)c(C)c2n1CCCCCS(=O)(=O)c1ccc(F)cc1` [Example 92, 1-[5-(4-Fluorobenzenesulfonyl)pentyl]-6,7-dimethyl-2-propyl-1H-imidazo[4,5-c]pyridin-4-amine] belongs 130 to 132 °C. To `CCCc1nc2c(N)nc(C)c(C)c2n1CCCCCS(=O)(=O)c1ccc(F)cc1F` [Example 93, 1-[5-(2,4-Difluorobenzenesulfonyl)pentyl]-6,7-dimethyl-2-propyl-1H-imidazo[4,5-c]pyridin-4-amine] belongs 130 to 132 °C. Consider `CCCc1nc2c(N)nc(C)c(C)c2n1CCCCCS(=O)(=O)c1ccc(Cl)cc1Cl` [Example 95, 1-[5-(2,4-Dichlorobenzenesulfonyl)pentyl]-6,7-dimethyl-2-propyl-1H-imidazo[4,5-c]pyridin-4-amine], for which the melting point fell in the range of 130 to 131.5 °C. For `CCCc1nc2c(N)nc(C)c(C)c2n1CCCCCS(C)(=O)=O` [Example 96, 1-[5-(Methanesulfonyl)pentyl]-6,7-dimethyl-2-propyl-1H-imidazo[4,5-c]pyridin-4-amine], the melting point lay within 145 to 146 °C. For `CCCc1nc2c(N)nc(C)c(C)c2n1CCCS(=O)(=O)c1ccccn1` [Example 98, 6,7-Dimethyl-2-propyl-1-[3-(pyridine-2-sulfonyl)propyl]-1H-imidazo[4,5-c]pyridin-4-amine], the melting point lay in the range of 172 to 173.5 °C. `CCCc1nc2c(N)nc(C)c(C)c2n1CCCS(=O)(=O)c1ccc(C(=O)OCC)cc1` [Example 99, 4-[3-(4-Amino-6,7-dimethyl-2-propyl-1H-imidazo[4,5-c]pyridin-1-yl)propane-1-sulfonyl]benzoic acid ethyl ester] yielded a melting point of 169 to 171 °C. In turn, `CCCc1nc2c(N)nc(C)c(C)c2n1CCCS(=O)(=O)c1ccc(C(=O)N2CCOCC2)cc1` [Example 101, {4-[3-(4-Amino-6,7-dimethyl-2-propyl-1H-imidazo[4,5-c]pyridin-1-yl)propane-1-sulfonyl]phenyl}morpholin-4-ylmethanone] had a melting point of 224 to 226 °C.

The compound `CCc1nc2c(N)nc(C)c(C)c2n1CCOCCNS(C)(=O)=O` [Example 102, N-{2-[2-(4-Amino-2-ethyl-6,7-dimethyl-1H-imidazo[4,5-c]pyridin-1-yl)ethoxy]ethyl}methanesulfonamide] gave a melting point of 145 to 147 °C. For `CCc1nc2c(N)nc(C)c(C)c2n1CCOCCNC(=O)N1CCOCC1` [Example 103, N-{2-[2-(4-Amino-2-ethyl-6,7-dimethyl-1H-imidazo[4,5-c]pyridin-1-yl)ethoxy]ethyl}morpholine-4-carboxamide] the value was 182 to 184 °C. In turn, `CCc1nc2c(N)nc(C)c(C)c2n1CCOCCNC(=O)C1CCCCC1` [Example 104, N-{2-[2-(4-Amino-2-ethyl-6,7-dimethyl-1H-imidazo[4,5-c]pyridin-1-yl)ethoxy]ethyl}cyclohexanecarboxamide] displayed a melting point of 170 to 172 °C. To `CCc1nc2c(N)nc(C)c(C)c2n1CCOCCNC(=O)NC1CCCCC1` [Example 105] belongs 187 to 189 °C; to `CCc1nc2c(N)nc(C)c(C)c2n1CCOCCN1CCCS1(=O)=O` [Example 106, 1-{2-[2-(1,1-Dioxidoisothiazolidin-2-yl)ethoxy]ethyl}-2-ethyl-6,7-dimethyl-1H-imidazo[4,5-c]pyridin-4-amine], 157 to 159 °C. With `CCc1nc2c(N)nc(C)c(C)c2n1CCOCCNC(=O)NC(=O)c1ccccc1` [Example 107, N-{2-[2-(4-Amino-2-ethyl-6,7-dimethyl-1H-imidazo[4,5-c]pyridin-1-yl)ethoxy]ethyl}-N′-benzoylurea], the melting point fell in the range of 185 to 187 °C. To `CCc1nc2c(N)nc(C)c(C)c2n1CCOCCNC(=O)NS(=O)(=O)c1ccccc1` [Example 108, N-[({2-[2-(4-Amino-2-ethyl-6,7-dimethyl-1H-imidazo[4,5-c]pyridin-1-yl)ethoxy]ethyl}amino)carbonyl]benzenesulfonamide] belongs 201 to 203 °C; to `CCOCc1nc2c(N)nc(C)c(C)c2n1CCOCc1ccncc1` [Example 109, 2-(Ethoxymethyl)-6,7-dimethyl-1-[2-(pyridin-4-ylmethoxy)ethyl]-1II-imidazo[4,5-c]pyridin-4-amine], 143 to 145 °C; to `Cc1nc(N)c2nc(C)n(CCOCc3ccncc3)c2c1C` [Example 110, 2,6,7-Trimethyl-1-[2-(pyridin-4-ylmethoxy)ethyl]-1H-imidazo[4,5-c]pyridin-4-amine], 208 to 210 °C. To `CCOCc1nc2c(N)nc(C)c(C)c2n1CCOCC#Cc1cncnc1` [Example 111, 2-(Ethoxymethyl)-6,7-dimethyl-1-{2-[(3-pyrimidin-5-ylprop-2-ynyl)oxy]ethyl}-1H-imidazo[4,5-c]pyridin-4-amine] belongs 122 to 124 °C.

Take `CCOCc1nc2c(N)nc(C)c(C)c2n1CCOCCCc1cncnc1` [Example 112, 2-(Ethoxymethyl)-6,7-dimethyl-1-[2-(3-pyrimidin-5-ylpropoxy)ethyl]-1H-imidazo[4,5-c]pyridin-4-amine]: the melting point is 127 to 129 °C. To `CCCc1nc2c(N)ncc(Br)c2n1CCOCCNS(C)(=O)=O` [Example 113, N-{2-[2-(4-Amino-7-bromo-2-propyl-1H-imidazo[4,5-c]pyridin-1-yl)ethoxy]ethyl}methanesulfonamide] belongs 129 to 131 °C; to `CCCc1nc2c(N)ncc(Br)c2n1CCOCCN` [Example 114, 1-[2-(2-Aminoethoxy)ethyl]-7-bromo-2-propyl-1H-imidazo[4,5-c]pyridin-4-amine], 114 to 117 °C. On to `CCCCNC(=O)c1ccc(S(=O)(=O)CCCn2c(CCC)nc3c(N)nc(C)c(C)c32)cc1` [Example 119, 4-[3-(4-Amino-6,7-dimethyl-2-propyl-1H-imidazo[4,5-c]pyridin-1-yl)propane-1-sulfonyl]-N-butylbenzamide], for which the melting point was in the range of 147 to 149 °C. The compound `CCCCN(C)C(=O)c1ccc(S(=O)(=O)CCCn2c(CCC)nc3c(N)nc(C)c(C)c32)cc1` [Example 120, 4-[3-(4-Amino-6,7-dimethyl-2-propyl-1H-imidazo[4,5-c]pyridin-1-yl)propane-1-sulfonyl]-N-butyl-N-methylbenzamide] registered a melting point of 127 to 129 °C. As to `CCCc1nc2c(N)nc(Cl)c(C)c2n1CCOCCN` [Example 121, 1-[2-(2-Aminoethoxy)ethyl]-6-chloro-7-methyl-2-propyl-1H-imidazo[4,5-c]pyridin-4-amine], the melting point lay in the range of 158 to 161 °C. For `CCOCc1nc2c(N)nc(C)c(C)c2n1CCOCC#Cc1ccccc1` [Example 122, 2-Ethoxymethyl-6,7-dimethyl-1-{2-[(3-phenylprop-2-ynyl)oxy]ethyl}-1H-imidazo[4,5-c]pyridin-4-amine] the value was 129 to 130 °C; for `CCc1nc2c(N)nc(C)c(C)c2n1CCOCCN1CCCC1=O` [Example 124, 1-{2-[2-(4-Amino-2-ethyl-6,7-dimethyl-1H-imidazo[4,5-c]pyridin-1-yl)ethoxy]ethyl}pyrrolindin-2-one], 128 to 130 °C.

Compound `CCCc1nc2c(N)nc(Cl)c(C)c2n1CCOCCNC(=O)c1ccccc1` [Example 125, N-{2-[2-(4-Amino-6-chloro-7-methyl-2-propyl-1H-imidazo[4,5-c]pyridin-4-yl)ethoxy]ethyl}benzamide] gave a melting point of 188 to 189 °C.
